Reference: publication doi:10.1101/2024.09.26.610356v2 (biorxiv, 2024)

How the values were obtained:
[1] = molecular target: T1, human glucose-6-phosphate isomerase (GPI) (Homo sapiens, UniProt P06744); assay: Michaelis-Menten kinetics, G6PDH-coupled assay; format: biochemical
[2] = molecular target: T1, human glucose-6-phosphate isomerase (GPI); assay: label-free MST; format: binding
[3] = molecular target: T1, human glucose-6-phosphate isomerase (GPI); assay: G6PDH-coupled kinetic assay, dose response; format: biochemical
[4] = molecular target: T2, human triosephosphate isomerase (TPI) (Homo sapiens, UniProt P60174); assay: GAPDH-coupled kinetic assay, dose response; format: biochemical
[5] = molecular target: T2, human triosephosphate isomerase (TPI); assay: Michaelis-Menten kinetics, GAPDH-coupled assay; format: biochemical
[6] = molecular target: T2, human triosephosphate isomerase (TPI); assay: label-free MST; format: binding

T2 sequence (P60174 whole entry): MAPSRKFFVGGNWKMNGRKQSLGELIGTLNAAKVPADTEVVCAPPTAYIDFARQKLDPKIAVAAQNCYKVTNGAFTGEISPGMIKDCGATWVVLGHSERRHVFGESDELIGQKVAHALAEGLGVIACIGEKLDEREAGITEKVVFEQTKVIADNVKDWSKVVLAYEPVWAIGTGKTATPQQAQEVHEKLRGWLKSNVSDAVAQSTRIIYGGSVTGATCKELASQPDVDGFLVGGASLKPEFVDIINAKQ

Compound	Ki [1]	Kd [2]	EC50 [3]	EC50 [4]	Ki [5]	Kd [6]
C/C(=C/C(=O)O)C(=O)O [Citraconate]	2.17 mM	20.1 ± 2.03 mM	8.05 ± 2.34 mM	–	–	–
O=C(CO)COP(=O)(O)O [Dihydroxyacetone phosphate]	4.47 mM	17.5 ± 0.98 mM	8.24 ± 1.94 mM	–	–	–
NO [Hydroxylamine]	21.1 mM	–	14.6 ± 1.99 mM	–	–	–
O=C(O)/C=C\C(=O)O [Maleate]	7.15 mM	14.4 ± 2.07 mM	9.48 ± 2.85 mM	–	–	–
CC(C(=O)O)C(=O)O [Methylmalonate]	–	–	–	16.3 ± 2.54 mM	17.3 mM	12.2 ± 1.9 mM
O=C(O)C(=O)O [Oxalate]	–	–	–	12.6 ± 0.76 mM	27.3 mM	19.1 ± 1.38 mM
C=C(OP(=O)(O)O)C(=O)O [Phosphoenolpyruvate]	5.61 mM	11.1 ± 1.44 mM	11.8 ± 1.33 mM	–	–	–

Second part, the molecule after the results:

Ki [1]	Kd [2]	EC50 [3]	EC50 [4]	Ki [5]	Kd [6]	Compound
3.97 mM	19.3 ± 0.96 mM	8.66 ± 1.37 mM	–	–	–	Nc1ncnc2c1ncn2[C@@H]1O[C@H](COP(=O)(O)OP(=O)(O)O)[C@@H](O)[C@H]1O [ADP]
–	–	–	7.31 ± 1.22 mM	1.89 mM	5.31 ± 1.07 mM	O=P(O)(O)OC(CO)CO [Glycerol-2-phosphate]
–	–	–	8.65 ± 1.49 mM	2.04 mM	6.79 ± 2.3 mM	O=P(O)(O)OC[C@H](O)CO [Glycerol-3-phosphate]
9.25 mM	13.1 ± 0.64 mM	7.35 ± 1.26 mM	–	–	–	NCCc1c[nH]cn1 [Histamine]
